Source: patent publication US20230017045A1, “PYRIDINE AND PYRIMIDINE CARBOXYLATE HERBICIDES AND METHODS OF USE THEREOF” (Dow AgroSciences LLC, priority 2017, published 2023)

Tested on: test plant species
Assay: Post-emergent herbicidal activity test (greenhouse, foliar spray, visual growth reduction)
Assay type: in vivo
Conditions: post-emergence, 336 h, ALOMY: blackgrass (Alopecurus myosuroides), 140 g ai/ha, 14 days after application, read-out: Visual Growth Reduction (%) 14 Days After Application, ALOMY
Method in brief: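 Visual percent injury (0-100) rated 14 d after treatment, relative to nontreated and solvent-blank plants. Test plants at first or second true leaf stage received an overhead track-sprayer application at 187 L/ha. Compounds were formulated in aqueous acetone/DMSO carrier containing crop oil concentrate and X-77 surfactant.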

First: COC(=O)c1nc(-c2ccc(OC(C)(C)C)cc2Cl)ccc1Cl [F36, Methyl 6-(4-(tert-butoxy)-2-chlorophenyl)-3-chloropicolinate]
Second: O=C(OCc1ccncc1)c1nc(-c2ccc(C(F)(F)F)cc2Cl)ccc1Cl [F81, Pyridin-4-ylmethyl 3-chloro-6-(2-chloro-4-(trifluoromethyl)phenyl)picolinate]
The pest or weed control at 140 g/ha of the first is lower: 0 to 29% for the first, 60 to 74% for the second.

Same assay, conditions: post-emergence, 336 h, AMARE: redroot pigweed (Amaranthus retroflexus), 140 g ai/ha, 14 days after application, read-out: Visual Growth Reduction (%) 14 Days After Application, AMARE

First: COC(=O)c1nc(-c2ccc(OC(C)(C)C)cc2Cl)ccc1Cl [F36, Methyl 6-(4-(tert-butoxy)-2-chlorophenyl)-3-chloropicolinate]
Second: O=C(OCc1ccncc1)c1nc(-c2ccc(C(F)(F)F)cc2Cl)ccc1Cl [F81, Pyridin-4-ylmethyl 3-chloro-6-(2-chloro-4-(trifluoromethyl)phenyl)picolinate]
The pest or weed control at 140 g/ha of the first is lower: 0 to 29% for the first, 95 to 100% for the second.

Same assay, conditions: post-emergence, 336 h, AVEFA: wild oat (Avena fatua), 140 g ai/ha, 14 days after application, read-out: Visual Growth Reduction (%) 14 Days After Application, AVEFA

First: COC(=O)c1nc(-c2ccc(OC(C)(C)C)cc2Cl)ccc1Cl [F36, Methyl 6-(4-(tert-butoxy)-2-chlorophenyl)-3-chloropicolinate]
Second: O=C(OCc1ccncc1)c1nc(-c2ccc(C(F)(F)F)cc2Cl)ccc1Cl [F81, Pyridin-4-ylmethyl 3-chloro-6-(2-chloro-4-(trifluoromethyl)phenyl)picolinate]
The pest or weed control at 140 g/ha of the first is lower: 0 to 29% for the first, 60 to 74% for the second.

Same assay, conditions: post-emergence, 336 h, CHEAL: lambsquarters (Chenopodium album), 140 g ai/ha, 14 days after application, read-out: Visual Growth Reduction (%) 14 Days After Application, CHEAL

First: COC(=O)c1nc(-c2ccc(OC(C)(C)C)cc2Cl)ccc1Cl [F36, Methyl 6-(4-(tert-butoxy)-2-chlorophenyl)-3-chloropicolinate]
Second: O=C(OCc1ccncc1)c1nc(-c2ccc(C(F)(F)F)cc2Cl)ccc1Cl [F81, Pyridin-4-ylmethyl 3-chloro-6-(2-chloro-4-(trifluoromethyl)phenyl)picolinate]
The pest or weed control at 140 g/ha of the first is lower: 0 to 29% for the first, 75 to 84% for the second.

Same assay, conditions: post-emergence, 336 h, CIRAR: canada thistle (Cirsium arvense), 140 g ai/ha, 14 days after application, read-out: Visual Growth Reduction (%) 14 Days After Application, CIRAR

Compared with `COC(=O)c1nc(-c2ccc(OC(C)(C)C)cc2Cl)ccc1Cl` [F36, Methyl 6-(4-(tert-butoxy)-2-chlorophenyl)-3-chloropicolinate], `O=C(OCc1ccncc1)c1nc(-c2ccc(C(F)(F)F)cc2Cl)ccc1Cl` [F81, Pyridin-4-ylmethyl 3-chloro-6-(2-chloro-4-(trifluoromethyl)phenyl)picolinate] is higher in pest or weed control at 140 g/ha: 0 to 29% for the first, 95 to 100% for the second.

Same assay, conditions: post-emergence, 336 h, CYPES: yellow nutsedge (Cyperus esculentus), 140 g ai/ha, 14 days after application, read-out: Visual Growth Reduction (%) 14 Days After Application, CYPES

`COC(=O)c1nc(-c2ccc(OC(C)(C)C)cc2Cl)ccc1Cl` [F36, Methyl 6-(4-(tert-butoxy)-2-chlorophenyl)-3-chloropicolinate] and `O=C(OCc1ccncc1)c1nc(-c2ccc(C(F)(F)F)cc2Cl)ccc1Cl` [F81, Pyridin-4-ylmethyl 3-chloro-6-(2-chloro-4-(trifluoromethyl)phenyl)picolinate] fall in the same range of pest or weed control at 140 g/ha: 0 to 29% for the first, 0 to 29% for the second.

Same assay, conditions: post-emergence, 336 h, DIGSA: crabgrass (Digitaria sanguinalis), 140 g ai/ha, 14 days after application, read-out: Visual Growth Reduction (%) 14 Days After Application, DIGSA

Compared with `COC(=O)c1nc(-c2ccc(OC(C)(C)C)cc2Cl)ccc1Cl` [F36, Methyl 6-(4-(tert-butoxy)-2-chlorophenyl)-3-chloropicolinate], `O=C(OCc1ccncc1)c1nc(-c2ccc(C(F)(F)F)cc2Cl)ccc1Cl` [F81, Pyridin-4-ylmethyl 3-chloro-6-(2-chloro-4-(trifluoromethyl)phenyl)picolinate] is higher in pest or weed control at 140 g/ha: 0 to 29% for the first, 95 to 100% for the second.

Same assay, conditions: post-emergence, 336 h, ECHCG: barnyardgrass (Echinochloa crus-galli), 140 g ai/ha, 14 days after application, read-out: Visual Growth Reduction (%) 14 Days After Application, ECHCG

Compared with `COC(=O)c1nc(-c2ccc(OC(C)(C)C)cc2Cl)ccc1Cl` [F36, Methyl 6-(4-(tert-butoxy)-2-chlorophenyl)-3-chloropicolinate], `O=C(OCc1ccncc1)c1nc(-c2ccc(C(F)(F)F)cc2Cl)ccc1Cl` [F81, Pyridin-4-ylmethyl 3-chloro-6-(2-chloro-4-(trifluoromethyl)phenyl)picolinate] is higher in pest or weed control at 140 g/ha: 0 to 29% for the first, 95 to 100% for the second.

Same assay, conditions: post-emergence, 336 h, IPOHE: ivy-leaf morning glory (Ipomoea hederacea), 140 g ai/ha, 14 days after application, read-out: Visual Growth Reduction (%) 14 Days After Application, IPOHE

First: COC(=O)c1nc(-c2ccc(OC(C)(C)C)cc2Cl)ccc1Cl [F36, Methyl 6-(4-(tert-butoxy)-2-chlorophenyl)-3-chloropicolinate]
Second: O=C(OCc1ccncc1)c1nc(-c2ccc(C(F)(F)F)cc2Cl)ccc1Cl [F81, Pyridin-4-ylmethyl 3-chloro-6-(2-chloro-4-(trifluoromethyl)phenyl)picolinate]
The pest or weed control at 140 g/ha of the first is lower: 0 to 29% for the first, 95 to 100% for the second.

Same assay, conditions: post-emergence, 336 h, KCHSC: kochia (Bassia scoparia), 140 g ai/ha, 14 days after application, read-out: Visual Growth Reduction (%) 14 Days After Application, KCHSC

First: COC(=O)c1nc(-c2ccc(OC(C)(C)C)cc2Cl)ccc1Cl [F36, Methyl 6-(4-(tert-butoxy)-2-chlorophenyl)-3-chloropicolinate]
Second: O=C(OCc1ccncc1)c1nc(-c2ccc(C(F)(F)F)cc2Cl)ccc1Cl [F81, Pyridin-4-ylmethyl 3-chloro-6-(2-chloro-4-(trifluoromethyl)phenyl)picolinate]
The pest or weed control at 140 g/ha of the first is lower: 0 to 29% for the first, 95 to 100% for the second.

Same assay, conditions: post-emergence, 336 h, ORYSA: rice (Oryza sativa), 140 g ai/ha, 14 days after application, read-out: Visual Growth Reduction (%) 14 Days After Application, ORYSA

Compared with `COC(=O)c1nc(-c2ccc(OC(C)(C)C)cc2Cl)ccc1Cl` [F36, Methyl 6-(4-(tert-butoxy)-2-chlorophenyl)-3-chloropicolinate], `O=C(OCc1ccncc1)c1nc(-c2ccc(C(F)(F)F)cc2Cl)ccc1Cl` [F81, Pyridin-4-ylmethyl 3-chloro-6-(2-chloro-4-(trifluoromethyl)phenyl)picolinate] is higher in pest or weed control at 140 g/ha: 0 to 29% for the first, 60 to 74% for the second.

Same assay, conditions: post-emergence, 336 h, SETFA: giant foxtail (Setaria faberi), 140 g ai/ha, 14 days after application, read-out: Visual Growth Reduction (%) 14 Days After Application, SETFA

First: COC(=O)c1nc(-c2ccc(OC(C)(C)C)cc2Cl)ccc1Cl [F36, Methyl 6-(4-(tert-butoxy)-2-chlorophenyl)-3-chloropicolinate]
Second: O=C(OCc1ccncc1)c1nc(-c2ccc(C(F)(F)F)cc2Cl)ccc1Cl [F81, Pyridin-4-ylmethyl 3-chloro-6-(2-chloro-4-(trifluoromethyl)phenyl)picolinate]
The pest or weed control at 140 g/ha of the first is lower: 0 to 29% for the first, 95 to 100% for the second.

Same assay, conditions: post-emergence, 336 h, SORVU: grain sorghum (Sorghum vulgare), 140 g ai/ha, 14 days after application, read-out: Visual Growth Reduction (%) 14 Days After Application, SORVU

First: COC(=O)c1nc(-c2ccc(OC(C)(C)C)cc2Cl)ccc1Cl [F36, Methyl 6-(4-(tert-butoxy)-2-chlorophenyl)-3-chloropicolinate]
Second: O=C(OCc1ccncc1)c1nc(-c2ccc(C(F)(F)F)cc2Cl)ccc1Cl [F81, Pyridin-4-ylmethyl 3-chloro-6-(2-chloro-4-(trifluoromethyl)phenyl)picolinate]
The pest or weed control at 140 g/ha of the first is lower: 0 to 29% for the first, 85 to 94% for the second.

Same assay, conditions: post-emergence, 336 h, STEME: common chickweed (Stellaria media), 140 g ai/ha, 14 days after application, read-out: Visual Growth Reduction (%) 14 Days After Application, STEME

`COC(=O)c1nc(-c2ccc(OC(C)(C)C)cc2Cl)ccc1Cl` [F36, Methyl 6-(4-(tert-butoxy)-2-chlorophenyl)-3-chloropicolinate] and `O=C(OCc1ccncc1)c1nc(-c2ccc(C(F)(F)F)cc2Cl)ccc1Cl` [F81, Pyridin-4-ylmethyl 3-chloro-6-(2-chloro-4-(trifluoromethyl)phenyl)picolinate] fall in the same range of pest or weed control at 140 g/ha: 0 to 29% for the first, 0 to 29% for the second.

Same assay, conditions: post-emergence, 336 h, TRZAS: wheat, spring (Triticum aestivum), 140 g ai/ha, 14 days after application, read-out: Visual Growth Reduction (%) 14 Days After Application, TRZAS

First: COC(=O)c1nc(-c2ccc(OC(C)(C)C)cc2Cl)ccc1Cl [F36, Methyl 6-(4-(tert-butoxy)-2-chlorophenyl)-3-chloropicolinate]
Second: O=C(OCc1ccncc1)c1nc(-c2ccc(C(F)(F)F)cc2Cl)ccc1Cl [F81, Pyridin-4-ylmethyl 3-chloro-6-(2-chloro-4-(trifluoromethyl)phenyl)picolinate]
The pest or weed control at 140 g/ha of the first is lower: 0 to 29% for the first, 75 to 84% for the second.
